According to article PMC3835334 (ACS medicinal chemistry letters, 2013):

test system: JMAR, MDA-MB-231, SKMEL-28, DRO81-1 and MRC-5 cells; test: not given; conditions: not given

Row | SMILES | Cytotoxic activity in words | Increased cytotoxicity compared to 1
1 | CC(=O)OCC1=C(C)C[C@H]([C@@H](C)[C@H]2CC[C@H]3[C@@H]4C[C@@H](O)C5=CC=CC(=O)[C@]5(COC(C)=O)[C@H]4CC[C@]23C)OC1=O [Compound 18] | abolished | 
2 | CC1=C(COC(=O)c2ccc(Cl)cc2)C(=O)O[C@@H]([C@@H](C)[C@H]2CC[C@H]3[C@@H]4C[C@H]5O[C@]56[C@@H](O)C=CC(=O)[C@]6(COC(=O)c5ccc(Cl)cc5)[C@H]4CC[C@]23C)C1 [Compound 11] | active | 
3 | CC(=O)OCC1=C(C)C[C@H]([C@@H](C)[C@H]2CC[C@H]3[C@@H]4C[C@H]5O[C@]56[C@@H](OC(=O)N(C)C)C=CC(=O)[C@]6(COC(C)=O)[C@H]4CC[C@]23C)OC1=O [Compound 15] |  | 3–5 times
4 | CC1=C(CO)C(=O)O[C@@H]([C@@H](C)[C@H]2CC[C@H]3[C@@H]4C[C@H]5O[C@]56[C@@H](O)C=C(I)C(=O)[C@]6(CO)[C@H]4CC[C@]23C)C1 [Compound 21] | very weak activity | 
5 | CC1=C(CO)C(=O)O[C@@H]([C@@H](C)[C@H]2CC[C@H]3[C@@H]4C[C@H]5O[C@]56[C@@H](OC(=O)c5ccc(Cl)cc5)C=CC(=O)[C@]6(CO)[C@H]4CC[C@]23C)C1 [Compound 10] | active | 
6 | CC(=O)OCC1=C(C)C[C@H]([C@@H](C)[C@H]2CC[C@H]3[C@@H]4C[C@H]5O[C@]56CC=CC(=O)[C@]6(COC(C)=O)[C@H]4CC[C@]23C)OC1=O [Compound 17, Jaborosalactone V diacetate] | equipotent to withaferin A | 

test system: JMAR, MDA-MB-231, SKMEL-28, DRO81-1 and MRC-5 cells; test: cells; conditions: read-out: IC50 values against melanoma and carcinoma cells

Row | SMILES | IC50 [nM]
7 | CC(=O)OCC1=C(C)C[C@H]([C@@H](C)[C@H]2CC[C@H]3[C@@H]4C[C@@H](O)[C@@]5(Cl)CC=CC(=O)[C@]5(COC(C)=O)[C@H]4CC[C@]23C)OC1=O [Compound 19] | 800 to 2160

same assay, conditions: read-out: IC50 values over all cell lines tested

Row | SMILES | IC50 [nM]
8 | CC(=O)OCC1=C(C)C[C@H]([C@@H](C)[C@H]2CC[C@H]3[C@@H]4C[C@@H](O)C5=CC=CC(=O)[C@]5(COC(C)=O)[C@H]4CC[C@]23C)OC1=O [Compound 18] | > 10000
9 | CC(=O)OCC1=C(C)C[C@H]([C@@H](C)[C@H]2CC[C@H]3[C@@H]4C[C@H]5O[C@]56[C@@H]5C=CC(=O)[C@]6(COC(=O)CC/C=C/CCC(=O)O5)[C@H]4CC[C@]23C)OC1=O [Compound 24] | 205 to 965
10 | CC1=C(COC(=O)c2ccc(Cl)cc2)C(=O)O[C@@H]([C@@H](C)[C@H]2CC[C@H]3[C@@H]4C[C@H]5O[C@]56[C@@H](OC(=O)c5ccc(Cl)cc5)C=CC(=O)[C@]6(CO)[C@H]4CC[C@]23C)C1 [Compound 12] | > 10000
11 | CC1=C(COC(=O)c2ccc(Cl)cc2)C(=O)O[C@@H]([C@@H](C)[C@H]2CC[C@H]3[C@@H]4C[C@H]5O[C@]56[C@@H](OC(=O)c5ccc(Cl)cc5)C=CC(=O)[C@]6(COC(=O)c5ccc(Cl)cc5)[C@H]4CC[C@]23C)C1 [Compound 13] | > 10000
12 | CC(=O)OC[C@]12C(=O)C=C[C@H](OC(=O)c3ccc(Cl)cc3)[C@]13O[C@@H]3C[C@H]1[C@@H]3CC[C@H]([C@H](C)[C@H]4CC(C)=C(COC(=O)c5ccc(Cl)cc5)C(=O)O4)[C@@]3(C)CC[C@@H]12 [Compound 16] | > 10000
13 | CCC(=O)OCC1=C(C)C[C@H]([C@@H](C)[C@H]2CC[C@H]3[C@@H]4C[C@H]5O[C@]56[C@@H](OC(=O)CC)C=CC(=O)[C@]6(COC(=O)CC)[C@H]4CC[C@]23C)OC1=O [Compound 9, withalongolide A 4,19,27-propionate] | 130 to 1000
14 | CC(=O)OCC1=C(C)C[C@H]([C@@H](C)[C@H]2CC[C@H]3[C@@H]4C[C@@H](OC(C)=O)C5=CC=CC(=O)[C@]5(COC(C)=O)[C@H]4CC[C@]23C)OC1=O [Compound 20] | > 10000
